# According to US10752640B2, “Compounds active towards bromodomains” (NUEVOLUTION A/S, priority 2014, dated 2020):
# pIC50: −log10 of the molar value.
# Target: BRD4 protein (Homo sapiens, UniProt O60885)
# Assay: FRET assay, half maximal inhibitory concentration (IC50)
# Type: binding
# Settings: BRD4 protein 50 nM, Biotin-H4KAc4 peptide 12.5 nM; A Further List of Classification
# Procedure: The compounds were biologically evaluated by determining the half maximal inhibitory concentration (IC50) by FRET assay. The IC50 is a measure of the effectiveness of a substance in inhibiting a specific biological or biochemical function.
# For IC50 determinations, dose-response curves were generated, using a top concentration of 50 μM compound in 12.5% DMSO, followed by 10-fold dilutions in 12.5% DMSO. The composition of the reaction buffer was 50 mM HEPES, pH 7.5; 100 mM NaCl, 0.05% CHAPS.
# The reaction was run in a final volume of 25 μl. The BRD4 protein (16.5 μl) was added to wells of 384w white Optiplates (Perkin Elmer) (50 nM final concentration) and 1 μl of compound dilution of DMSO control. Incubation time was 30 minutes at room temperature. In the next step, 2.5 μl Biotin-H4KAc4 peptide (Millipore 13-379) was added to the wells (final concentration was 12.5 nM), and the plates were incubated for 30 minutes at room temperature. Detection was performed by addition of 5 μl of a mix of mAb GST-XL665 (Cisbio 61GSTXLB) (10 nM final concentration) and Streptavidin Cryptate (Cisbio 610SAKLB) (2.4 nM final conc.) in reaction buffer with 0.4M KF and 0.05% BSA). The plates were incubated for one hour prior to reading on an Envision reader (Perkin Elmer)
# Data was analyzed using GraphPad Prism, and IC50 data was obtained using non-linear regression curve fit using log(inhibitor) vs response (variable slope). All compounds were considered active although classified (according to the half maximal inhibitory concentration (IC50) by FRET assay) as follows: […]
row,pIC50,Compound
1,5.00 to 6.00,"Cc1cc(O)nc2ccc(NC(=O)c3cc(CN4CCOCC4)cnc3N3CCC(N4CCCC4)C3)cc12 (stereo not shown) [S107, N-(2-hydroxy-4-methyl-6-quinolyl)-5-(morpholinomethyl)-2-(3-pyrrolidin-1-ylpyrrolidin-1-yl)pyridine-3-carboxamide]"
2,6.00 to 6.30,"Cc1cc(O)nc2ccc(NC(=O)c3cc(S(=O)(=O)N(C)C)ccc3N3CCC(N4CCCC4)C3)cc12 (stereo not shown) [S49, 5-(dimethylsulfamoyl)-N-(2-hydroxy-4-methyl-6-quinolyl)-2-(3-pyrrolidin-1-ylpyrrolidin-1-yl)benzamide]"
3,> 6.70,"COC[C@@H]1CCCN1Cc1ccc(N2CCCC2)c(C(=O)Nc2ccc3nc(O)cc(C)c3c2)c1 [S85, N-(2-hydroxy-4-methyl-6-quinolyl)-5-[[(2S)-2-(methoxymethyl)pyrrolidin-1-yl]methyl]-2-pyrrolidin-1-yl-benzamide]"
4,> 6.70,"COCC1CCCN(Cc2ccc(N3CCCC3)c(C(=O)Nc3ccc4nc(O)cc(C)c4c3)c2)C1 (stereo not shown) [S91, N-(2-hydroxy-4-methyl-6-quinolyl)-5-[[3-(methoxymethyl)-1-piperidyl]methyl]-2-pyrrolidin-1-yl-benzamide]"
5,6.00 to 6.30,"Cc1cc(O)nc2ccc(NC(=O)c3cc(CN4CCOCC4)cnc3N3CCC(c4ccncc4)C3)cc12 (stereo not shown) [S111, N-(2-hydroxy-4-methyl-6-quinolyl)-5-(morpholinomethyl)-2-[3-(4-pyridyl)pyrrolidin-1-yl]pyridine-3-carboxamide]"
6,< 5.00,"CNS(=O)(=O)c1cccc(C(=O)Nc2ccc3nc(O)cc(C)c3c2)c1 [S23, N-(2-hydroxy-4-methyl-6-quinolyl)-3-(methylsulfamoyl)benzamide]"
7,> 6.70,"COCC1CCCN1c1ccc(S(=O)(=O)N(C)C)cc1C(=O)Nc1ccc2nc(O)cc(C)c2c1 (stereo not shown) [S53, 5-(dimethylsulfamoyl)-N-(2-hydroxy-4-methyl-6-quinolyl)-2-[2-(methoxymethyl)pyrrolidin-1-yl]benzamide]"
8,> 6.70,"Cc1cc(O)nc2ccc(NC(=O)c3cc(S(=O)(=O)N(C)C)ccc3N3CCCC3CN(C)C)cc12 (stereo not shown) [S56, 2-[2-(dimethylaminomethyl)pyrrolidin-1-yl]-5-(dimethylsulfamoyl)-N-(2-hydroxy-4-methyl-6-quinolyl)benzamide]"
9,6.30 to 6.70,"Cc1cc(O)nc2ccc(NC(=O)c3cc(N4CCOCC4)ccc3NS(C)(=O)=O)cc12 [S28, N-(2-hydroxy-4-methyl-6-quinolyl)-2-(methanesulfonamido)-5-morpholino-benzamide]"
10,> 6.70,"Cc1cc(O)nc2ccc(NC(=O)c3cc([N+](=O)[O-])ccc3N3CCCC3)cc12 [S25, N-(2-hydroxy-4-methyl-6-quinolyl)-5-nitro-2-pyrrolidin-1-yl-benzamide]"
11,6.00 to 6.30,"Cc1cc(O)nc2ccc(NC(=O)c3cc(S(=O)(=O)N(C)C)ccc3N3CCC(N(C)C)C3)cc12 (stereo not shown) [S45, 2-[3-(dimethylamino)pyrrolidin-1-yl]-5-(dimethylsulfamoyl)-N-(2-hydroxy-4-methyl-6-quinolyl)benzamide]"
12,6.00 to 6.30,"Cc1cc(O)nc2ccc(NC(=O)c3cc(S(=O)(=O)N(C)C)ccc3N3CCCC3C)cc12 (stereo not shown) [S52, 5-(dimethylsulfamoyl)-N-(2-hydroxy-4-methyl-6-quinolyl)-2-(2-methylpyrrolidin-1-yl)benzamide]"

# Same assay, conditions: BRD4 protein 50 nM, Biotin-H4KAc4 peptide 12.5 nM; List of Classification
row,pIC50,Compound
1,6.00 to 6.30,"Cc1cc(O)nc2ccc(NC(=O)c3cc(CN4CCOCC4)ccc3N3CCCC3=O)cc12 [Compound-34, N-(2-hydroxy-4-methylquinolin-6-yl)-5-(morpholinomethyl)-2-(2-oxopyrrolidin-1-yl) benzamide]"
2,> 6.70,"Cc1cc(O)nc2ccc(NC(=O)c3cc(C#N)ncc3N3CCCC3)cc12 [Compound-41, 2-Cyano-N-(2-hydroxy-4-methylquinolin-6-yl)-5-(pyrrolidin-1-yl) isonicotinamide]"
3,< 5.00,"Cc1cc(O)nc2ccc(N(C)C(=O)c3cc(S(=O)(=O)N4CCOCC4)ccc3N3CCCC3)cc12 [Compound-22, N-(2-hydroxy-4-methylquinolin-6-yl)-N-methyl-5-(morpholinosulfonyl)-2-(pyrrolidin-1-yl) benzamide]"
4,< 5.00,"COc1ccccc1C(=O)Nc1ccc2nc(O)cc(C)c2c1 [Compound-69, N-(2-hydroxy-4-methyl-6-quinolyl)-2-methoxy-benzamide]"
5,> 6.70,"COc1cc2nc(O)cc(C)c2cc1NC(=O)c1cc(-c2nnc(C)o2)ccc1N1CCOCC1 [Compound-201, N-(2-hydroxy-7-methoxy-4-methylquinolin-6-yl)-5-(5-methyl-1,3,4-oxadiazol-2-yl)-2-morpholinobenzamide]"
6,6.00 to 6.30,"Cc1cc(O)nc2ccc(NC(=O)c3cc(-c4ccoc4)cnc3N3CC4(COC4)C3)cc12 [Compound-178, 5-(furan-3-yl)-N-(2-hydroxy-4-methylquinolin-6-yl)-2-(2-oxa-6-azaspiro[3.3]heptan-6-yl)nicotinamide]"
7,> 6.70,"CC(=O)c1cc(C(=O)Nc2ccc3nc(O)cc(C)c3c2)c(N2CCCC2)cn1 [Compound-42, 2-acetyl-N-(2-hydroxy-4-methylquinolin-6-yl)-5 (pyrrolidin-1-yl)isonicotinamide]"
8,> 6.70,"Cc1cc2nc(O)cc(C)c2cc1NC(=O)c1cc(-c2nnn(C)n2)cnc1N1CCOCC1 [Compound-195, N-(2-hydroxy-4,7-dimethylquinolin-6-yl)-5-(2-methyl-2H-tetrazol-5-yl)-2-morpholinonicotinamide]"
9,> 6.70,"Cc1cc(O)nc2ccc(NC(=O)c3cc(N4CCOCC4)cnc3N3CCOCC3)cc12 [Compound-186, N-(2-hydroxy-4-methylquinolin-6-yl)-2,5-dimorpholinonicotinamide]"
10,> 6.70,"Cc1cc(O)nc2ccc(NC(=O)c3cccnc3N3CCOC4CNCC43)cc12 (stereo not shown) [Compound-142, 2-(3,4a,5,6,7,7a-hexahydro-2H-pyrrolo[3,4-b][1,4]oxazin-4-yl)-N-(2-hydroxy-4-methyl-6-quinolyl)pyridine-3-carboxamide]"
11,5.00 to 6.00,"CN1C(=O)CCc2cc(NC(=O)c3cccnc3N3CCOCC3)ccc21 [Compound-131, N-(1-methyl-2-oxo-3,4-dihydroquinolin-6-yl)-2-morpholino-pyridine-3-carboxamide]"
12,> 6.70,"Cc1cc2nc(O)cc(C)c2cc1NC(=O)c1cc(-c2ccoc2)cnc1N1CCOCC1 [Compound-191, 5-(furan-3-yl)-N-(2-hydroxy-4,7-dimethylquinolin-6-yl)-2-morpholinonicotinamide]"
13,> 6.70,"Cc1cc(O)nc2ccc(NC(=O)c3cc(S(=O)(=O)N(C)C)ccc3N3CCN(C)CC3)cc12 [Compound-15, 5-(N, N-dimethylsulfamoyl)-N-(2-hydroxy-4-methylquinolin-6-yl)-2-(4-methylpiperazin-1-yl) benzamide]"
14,> 6.70,"Cc1cc(O)nc2ccc(NC(=O)c3cccnc3N3CCC(F)C3)cc12 (stereo not shown) [Compound-132, 2-(3-fluoropyrrolidin-1-yl)-N-(2-hydroxy-4-methyl-6-quinolyl)pyridine-3-carboxamide]"
15,> 6.70,"Cc1cc(O)nc2ccc(NC(=O)c3cc(N4CCN(C)CC4)cnc3N3CCOCC3)cc12 [Compound-185, N-(2-hydroxy-4-methylquinolin-6-yl)-5-(4-methylpiperazin-1-yl)-2-morpholinonicotinamide]"
16,5.00 to 6.00,"Cc1cc2nc(O)cc(C)c2cc1NC(=O)c1c(C)ccnc1N1CCOCC1 [Compound-137, N-(2-hydroxy-4,7-dimethyl-6-quinolyl)-4-methyl-2-morpholino-pyridine-3-carboxamide]"
17,6.30 to 6.70,"Cc1cc(O)nc2ccc(NC(=O)c3cc(S(=O)(=O)N(C)C)ccc3N3CC(N(C)C)C3)cc12 [Compound-20, 2-[3-(dimethylamino)azetidin-1-yl]-5-(dimethylsulfamoyl)-N-(2-hydroxy-4-methyl-6-quinolyl)benzamide]"
18,> 6.70,"CC1CC(=O)Nc2ccc(NC(=O)c3cc(S(=O)(=O)N(C)C)ccc3N3CCCC3)cc21 (stereo not shown) [Compound-102, 5-(dimethylsulfamoyl)-N-(4-methyl-2-oxo-3,4-dihydro-1H-quinolin-6-yl)-2-pyrrolidin-1-yl-benzamide]"
19,< 5.00,"Cc1cc(O)nc2ccc(NC(=O)c3cc(S(=O)(=O)N(C)C)ccc3NCCO)cc12 [Compound-19, 5-(dimethylsulfamoyl)-2-(2-hydroxyethylamino)-N-(2-hydroxy-4-methyl-6-quinolyl)benzamide]"
20,> 6.70,"COCc1ccc(N2CCCC2)c(C(=O)Nc2ccc3nc(O)cc(C)c3c2)c1 [Compound-13, N-(2-hydroxy-4-methylquinlin-6-yl)-5-(methoxymethyl)-2-(pyrrolidin-1-yl) benzamide]"
21,> 6.70,"COc1cc2nc(O)cc(C)c2cc1NC(=O)c1cc(-c2cnn(C)c2)ccc1N1CCOCC1 [Compound-159, N-(2-hydroxy-7-methoxy-4-methyl-6-quinolyl)-5-(1-methylpyrazol-4-yl)-2-morpholino-benzamide]"
22,> 6.70,"Cc1cc(O)nc2ccc(NC(=O)c3cccnc3N3CCCC3CN(C)C)cc12 (stereo not shown) [Compound-97, 2-[2-(dimethylaminomethyl)pyrrolidin-1-yl]-N-(2-hydroxy-4-methyl-6-quinolyl)pyridine-3-carboxamide]"
